{
  "source": "patent US10370372B2",
  "about": "“Fused pyrimidine compound or salt thereof” (TAIHO PHARMACEUTICAL CO., LTD., priority 2015, dated 2019)",
  "format_in_all_cases": "cell-based",
  "key": {"AR expression in LNCaP": {"test_system": "AR expression in LNCaP", "test": "Activity of reducing expression level of androgen receptor (Western blotting in LNCaP)", "conditions": "Homo sapiens, 48 h, read-out: AR expression reducing activity", "protocol": "AR positive human prostate cancer cells LNCaP were seeded in a 6 well microplate (BD) at 3.5×10^5/well with RPMI1640 containing 5% FBS (hereinbelow, the medium is referred to as an evaluation medium), and then cultured overnight. […] After culture for 48 hours, the medium was removed and the cells were washed with PBS and added with 0.1 mL of Lysis buffer (M-PER added with Protease Inhibitor Cocktail), followed by keeping at 4° C. for 20 minutes. After cell lysis, the cell solution was centrifuged to recover the supernatant as cell lysate. […] The antibody-reacting band (anti AR receptor) was quantified by LAS Imaging System (FUJIFILM) using Super Signal West Dura Substrate (Thermo Scientific) as a detection reagent.\nWhen the AR expression reducing activity is 50% or more, it is described as “reduced”."}, "[1]": {"test_system": "AR positive human prostate cancer cells VCaP", "test": "Agonist activity for AR: cell proliferation rate of VCaP cells", "conditions": "5-10000 nmol/L, 72 hours, relative to evaluation medium only, more than 10% = agonist activity", "protocol": "Then, the number of viable cells was measured (test group). As a control, the cells were cultured after being added with the evaluation medium only, and the number of viable cells was measured (control group). The number of viable cells was measured by using CellTiter-Glo™ Luminescent Cell Viability Assay (Promega). From the measured number of viable cells, cell proliferation rate with respect to the compound of Examples or the compound of Comparative Examples was calculated based on the number of viable cells measured in the case of using the evaluation medium only. Cell proliferation rate (%)=(Number of viable cells in test group−Number of viable cells in control group)/(Number of viable cells in control group)×100\nBy considering an error in the number of viable cells measured in the case of using the evaluation medium only, when the cell proliferation rate was more than 10% at any concentration of the 8 concentrations which had been evaluated, it was determined to have an agonist activity for AR."}, "human androgen receptor": {"target": "T1, human androgen receptor (Homo sapiens, UniProt P10275)", "T1 construct": "expressed in transfected cells; host or cells: COS-7 cells (ATCC)", "T1 sequence (P10275 1-920)": "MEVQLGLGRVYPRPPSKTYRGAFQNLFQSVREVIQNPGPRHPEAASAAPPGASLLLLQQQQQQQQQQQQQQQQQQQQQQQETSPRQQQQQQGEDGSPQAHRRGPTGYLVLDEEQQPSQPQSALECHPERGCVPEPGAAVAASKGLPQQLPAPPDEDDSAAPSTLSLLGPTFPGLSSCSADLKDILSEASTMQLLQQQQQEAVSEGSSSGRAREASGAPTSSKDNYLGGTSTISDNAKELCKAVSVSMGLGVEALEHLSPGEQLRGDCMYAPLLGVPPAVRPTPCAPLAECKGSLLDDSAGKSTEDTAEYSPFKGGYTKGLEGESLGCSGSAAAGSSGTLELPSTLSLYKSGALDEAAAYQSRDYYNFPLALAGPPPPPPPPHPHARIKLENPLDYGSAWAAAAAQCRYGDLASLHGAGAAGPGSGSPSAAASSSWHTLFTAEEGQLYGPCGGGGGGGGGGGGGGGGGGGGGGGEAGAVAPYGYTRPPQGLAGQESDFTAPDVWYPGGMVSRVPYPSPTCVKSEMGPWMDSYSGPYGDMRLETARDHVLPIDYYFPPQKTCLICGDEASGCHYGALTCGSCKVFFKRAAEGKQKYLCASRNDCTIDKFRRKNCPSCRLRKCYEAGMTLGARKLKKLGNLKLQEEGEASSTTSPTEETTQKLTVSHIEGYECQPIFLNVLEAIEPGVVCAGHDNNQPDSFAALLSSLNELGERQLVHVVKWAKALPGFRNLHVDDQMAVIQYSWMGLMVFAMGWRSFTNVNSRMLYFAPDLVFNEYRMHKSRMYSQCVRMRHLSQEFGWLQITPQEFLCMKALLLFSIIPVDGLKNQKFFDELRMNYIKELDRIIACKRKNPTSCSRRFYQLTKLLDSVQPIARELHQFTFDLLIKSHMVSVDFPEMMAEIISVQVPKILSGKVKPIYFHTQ", "test": "Antagonist activity for AR: MMTV-luc reporter transcription in COS-7 cells transfected with human AR, stimulated with DHT", "protocol": "Antagonist activity for AR was evaluated according to the following method. COS-7 cells (ATCC) were transfected with pMMTV-luc vector (reporter plasmid having, as an androgen response element, […] long terminal repeat) and pEX-hAR vector (human androgen receptor expression vector: which expresses human AR gene under control of CMV promoter) by using Nucleofector (registered trademark) Kit R (Lonza) as a transfection reagent and Amaxa (Lonza). The COS-7 cells obtained after transfection were seeded in a clear bottom 96 well microplate (BD) at 1.5×10^4/well with phenol red free RPMI1640 containing 10% charcoal-treated fetal bovine serum (hereinbelow, DCC-FBS) (hereinbelow, the medium is referred to as an evaluation medium), and then cultured overnight. […] Then, the transcription activity value of the reporter plasmid was measured. The transcription activity was measured by using Bright-Glo™ Luciferase Assay System (Promega)."}, "[2]": {"test_system": "Human prostate cancer cells LNCaP", "test": "Inhibitory activity on androgen-dependent proliferation of prostate cancer cells", "conditions": "1 nmol/L DHT, 72 hours, Cell Counting Kit-8, read-out: Proliferation inhibition concentration GI50 value", "protocol": "Human prostate cancer cells LNCaP (Non-Patent Literature 5) having […] androgen receptor gene were seeded in a clear bottom 96 well microplate (BD) at 4.0×10^3/well with phenol red free RPMI1640 containing 5% DCC-FBS (hereinbelow, the medium is referred to as an evaluation medium), and then cultured overnight. […] Then, the number of viable cells was measured. The number of viable cells was measured by using Cell Counting Kit-8 (DOJINDO LABORATORIES)."}},
  "note": "Read-outs that look alike come from different tables or passages of the source.",
  "data": [
    {"smiles": "CC(=O)N1CCN(CCCOc2ccc(Nc3ncnc4c3CCN(c3ccc(C#N)c(Cl)c3)C4)cc2C(F)(F)F)CC1", "note": "[Example 43, 4-(4-((4-(3-(4-acetylpiperazin-1-yl)propoxy)-3-(trifluoromethyl)phenyl)amino)-5,6-dihydropyrido[3,4-d]pyrimidin-7(8H)-yl)-2-chlorobenzonitrile]", "values": [
      {"measurement": "inhibition at 10 µM", "setting": "AR expression in LNCaP", "result": "> 50", "unit": "%"},
      {"measurement": "Cell proliferation rate (%)", "setting": "[1]", "result": 8.4, "unit": "%"},
      {"measurement": "IC50", "setting": "human androgen receptor", "result": 300, "unit": "nM"},
      {"measurement": "GI50", "setting": "[2]", "result": 380, "unit": "nM"}
    ]},
    {"smiles": "COc1ccc(Nc2nc(C#N)nc3c2CCN(c2ccc(C#N)c(C(F)(F)F)c2)C3)cc1", "note": "[Example 47, 7-(4-Cyano-3-(trifluoromethyl)phenyl)-4-((4-methoxyphenyl)amino)-5,6,7,8-tetrahydropyrido[3,4-d]pyrimidine-2-carbonitrile]", "values": [
      {"measurement": "inhibition at 10 µM", "setting": "AR expression in LNCaP", "result": "> 50", "unit": "%"},
      {"measurement": "Cell proliferation rate (%)", "setting": "[1]", "result": "−1.7", "unit": "%"},
      {"measurement": "IC50", "setting": "human androgen receptor", "result": 700, "unit": "nM"},
      {"measurement": "GI50", "setting": "[2]", "result": 450, "unit": "nM"}
    ]},
    {"smiles": "COc1ccc(Nc2nc(C)nc3c2CCN(c2ccc(C#N)c(C(F)(F)F)c2)C3)cc1", "note": "[Example 48, 4-(4-((4-Methoxyphenyl)amino)-2-methyl-5,6-dihydropyrido[3,4-d]pyrimidin-7(8H)-yl)-2-(trifluoromethyl)benzonitrile]", "values": [
      {"measurement": "inhibition at 10 µM", "setting": "AR expression in LNCaP", "result": "> 50", "unit": "%"},
      {"measurement": "Cell proliferation rate (%)", "setting": "[1]", "result": "−1.6", "unit": "%"},
      {"measurement": "IC50", "setting": "human androgen receptor; COS-7 cells with pMMTV-luc and pEX-hAR, 1 nmol/L DHT, 24 hours, read-out: AR antagonist IC50", "result": 1000, "unit": "nM"},
      {"measurement": "GI50", "setting": "[2]", "result": 610, "unit": "nM"}
    ]}
  ]
}
